Patent publication US11731977B2, “SGC stimulators” (Cyclerion Therapeutics, Inc., priority 2016, dated 2023)
Like-named read-outs stand apart in the source and are kept apart here.

How the values were obtained:
male Long Evans rats = assay: Novel Object Recognition (NOR) test, MK-801-induced memory disruption (Example 10); type: in vivo, rat; details: for reversal of MK-801-induced memory deficits (Recognition Index): Galantamine 1 mg/kg, vs Vehicle/MK-801; for Recognition Index, Mean: 0 to 3 minute time bin
Source text: Objective. To assess the efficacy of compounds of the invention in reversing memory disruption induced by MK-801 using the Novel Object Recognition (NOR) test in male Long Evans rats. The NOR is a test of recognition learning and memory retrieval, which takes advantage of the spontaneous preference of rodents to investigate a novel object compared with a familiar one (Ennaceur and Delacour, 1988). […] The NOR test has been employed extensively to assess the potential cognitive-enhancing properties of novel test compounds. […] In the present study, a memory saving model was used to test the novel compound—MK-801 (Dizocilpine), an uncompetitive antagonist of the NMD A receptor was used to cause deficit of recognition memory. Compounds of the invention were evaluated through its efficacy in reversing memory impairment.
Animals. Adult male Long-Evans rats (275-299 gram at arrival from Envigo, Indianapolis, Ind.) were used in this study. Rats were placed in the experimental rooms and assigned unique identification numbers (tail marks). Rats were housed 2 per cage in polycarbonate cages with filter tops and acclimated for at least 7 days prior to testing. Animal room was maintained in a 12/12 h light/dark cycle (lights on at 07.00 EST), 22±1° C. and relative humidity at approximately 50%. Food and water were provided ad libitum. All animals were examined, handled and weighed prior to the study to assure adequate health and to minimize the non-specific stress associated with testing. Each animal was randomly assigned across the treatment groups. The experiments were conducted during the animal's light cycle phase.
MK-801 (0.1 mg/kg; Sigma-Aldrich) was dissolved in saline and injected IP 15 min prior to NOR training.
Galantamine (1 mg/kg; Tocris) was dissolved in saline and injected IP 15 minutes prior to training.
Compound I-1 (0.01, 0.1, and 1 mg/kg) was oral administrated 60 minutes prior to training. The dose volume was 4 ml/kg
Experimental procedures. NOR test was conducted in an open-field arena (40×40 cm) placed in a sound-attenuated room under dimmed lighting. Each rat was tested separately and care was taken to remove olfactory/taste cues by cleaning the arena and test objects with 70% alcohol between trials and rats. All training and testing trials were video-taped and scored by an observer blind to treatments.
On Days 1 and 2, rats were allowed to freely explore the arena (no objects inside) for a 5-minute habituation period. On Day 3 (training and testing day), rats were administered vehicle (saline), galantamine or compound solutions followed by MK-801 or vehicle (saline). After the pretreatment time, each animal was placed into the test arena in the presence of two identical objects. Each rat was placed in the arena facing the same direction at the same position, and the time spent actively exploring the objects during a 3-minute training period (T1) was recorded. The rat was returned to its home cage following training. NOR test (T2) was conducted 1 hours after T1. Each rat was placed back into the test arena in the presence of one familiar object and one novel object for 5 minutes, and the time spent exploring both objects was recorded during 0-1, 0-3 and 0-5 min time ranges. The presentation order and position of the objects (left/right) in T2 was randomized between rats to prevent bias from order or place preference.
Statistical Analysis. Data of NOR test (T2) were expressed as Recognition Index, which is defined as the ratio of the time spent exploring the novel object over the total time spent exploring both objects (Novel/(Familiar+Novel)×100%) during the test session. Data were analyzed by using one-way ANOVA followed by Fisher's LSD post hoc test on 0-1, 0-3 and 0-5 minute time range separately, with significance set at P<0.05. […] And then statistical outliers that fell above or below two standard deviations from the mean were removed from the final analysis. […]

[1] = Non-human primate (NHP) CSF pharmacokinetic properties (Example 6); type: in vivo, Cynomolgus monkeys; details: male, Cynomolgus monkey
Description: Protocol PK in NHP was determined following intravenous and oral dosing. For the intravenous (IV) experiments, a group of 4 male Cynomolgus monkeys were used. The IV group was dosed with 0.3 mg/kg of a compound formulated as a solution in 10% PEG-400, 25% of a 20% Solutol HS 15 in Water, and 65% DPBS. IV doses were administered by injection and delivered via catheter into the cephalic vein. For the oral (PO) experiments, a group of 4 male Cynomolgus monkeys were used. The PO group was dosed with 1 mg/kg of a compound formulated as a suspension in 1% HPMC E5, 0.2% Tween 80, 0.5% MC in water. PO doses were administered by oral gavage and delivered via gelatin capsule.
Plasma and CSF samples were collected as follows: samples of CSF and blood were collected at 1, 4 and 24 hours post IV dosing and 2, 8 and 24 hours post PO dosing. CSF samples (0.05 mL) were collected either the cisterna magna (primary site) or the lumbosacral region (L4/5) via direct needle puncture at the appropriate time points. Blood samples (0.25 mL) were collected from a peripheral vein. These samples were kept on ice until processed for plasma. Blood samples were centrifuged at 3200 rpm for 5 minutes at approximately 5° C. within 1 hour of collection. Plasma was directly transferred to a 96-well plate tube (0.125 mL). Plug caps were placed on the tubes and the tubes frozen at approximately −70° C. and stored until analysis. Plasma was collected and analyzed for the presence of a compound.
Quantitation of Compounds. The compound of the invention and the internal standard were extracted from plasma and CSF by precipitation. Samples were analyzed using liquid chromatography (LC) with tandem mass spectrometric detection (MS/MS) using electrospray ionization. The standard curve range was from 1 to 1000 ng/mL. Results of the compounds described herein in this assay are illustrated in Tables 6a and 6b below (0.3 mg/kg IV dose, 1 mg/kg PO dose).
Kp,uu is defined as the concentration ratio of unbound drug in CSF to unbound drug in plasma. Unbound drug in plasma (or free plasma concentration) is calculated by multiplying the total plasma concentration by the unbound fraction as determined by plasma protein binding. The CSF concentration is then divided by the free plasma concentration to determine the Kp,uu. (See e.g., Di et al., J. Med Chem., 56, 2-12 (2013))

## Fc1ccccc1Cc1nc(-c2nc(C(F)(F)F)n[nH]2)cn2ccnc12 [Compound I-1, 8-(2-fluorobenzyl)-6-(3-(trifluoromethyl)-1H-1,2,4-triazol-5-yl)imidazo[1,2-a]pyrazine]
Male Long Evans rats; 0-1 min time range, Compound I-1 1 mg/kg
  reversal of MK-801-induced memory deficits (Recognition Index): significantly reversed
Male Long Evans rats; 0-3 minute time range, Compound I-1 0.1 and 1 mg/kg
  reversal of MK-801-induced memory deficits (Recognition Index): significantly reversed
Male Long Evans rats; 0-5 minute time range, Compound I-1 1 mg/kg
  reversal of MK-801-induced memory deficits (Recognition Index): significantly reversed
Male Long Evans rats; I-1 (0.1 mg/kg) oral + MK-801
  Recognition Index, Mean: 60.1%
Male Long Evans rats; I-1 (1 mg/kg) oral + MK-801
  Recognition Index, Mean: 64.8%
Male Long Evans rats; I-1 (10 mg/kg) oral + MK-801
  Recognition Index, Mean: 66.8%
[1]; CSF / unbound plasma, 0.3 mg/kg IV, @ 1 h
  Kp uu at 1 h: 1.8
[1]; CSF / unbound plasma, 0.3 mg/kg IV, @ 4 h
  Kp uu at 4 h: 3
[1]; CSF / unbound plasma, 0.3 mg/kg IV
  Kp uu at 24 h: 2.8
[1]; CSF / unbound plasma, 1 mg/kg PO, @ 2 h
  Kp uu at 2 h: 1.8
[1]; CSF / unbound plasma, 1 mg/kg PO, @ 8 h
  Kp uu at 8 h: 2.5
[1]; CSF / unbound plasma, 1 mg/kg PO
  Kp uu at 24 h: 2.1
[1]; CSF, 0.3 mg/kg IV, @ 1 h, read-out: CSF Conc.
  concentration at 1 h: 27 nM
[1]; CSF, 0.3 mg/kg IV, @ 4 h, read-out: CSF Conc.
  concentration at 4 h: 20 nM
[1]; CSF, 0.3 mg/kg IV, read-out: CSF Conc.
  concentration at 24 h: 6 nM
[1]; CSF, 1 mg/kg PO, @ 2 h, read-out: CSF Conc.
  concentration at 2 h: 42 nM
[1]; CSF, 1 mg/kg PO, @ 8 h, read-out: CSF Conc.
  concentration at 8 h: 31 nM
[1]; CSF, 1 mg/kg PO, read-out: CSF Conc.
  concentration at 24 h: 11 nM
